Experimental data reported in ChEMBL document CHEMBL1155949, “Blockade of glucocorticoid excess at the tissue level: inhibitors of 11beta-hydroxysteroid dehydrogenase type 1 as a therapy for type 2 diabetes” (J Med Chem, 2008).

Assays:
[1] = Inhibition of cynomolgus monkey 11beta-HSD1 mediated conversion of prednisone to prednisolone; design: species or system Macaca fascicularis
[2] = system: Corticosteroid 11-beta-dehydrogenase isozyme 2 (Homo sapiens); test: Inhibition of 11beta-HSD2 in human SW620 cells at 10 uM; settings: SW-620

Ki [1] [nM]	inhibition [2] [%]	Structure (SMILES)
2.3		N#Cc1ccc(-c2ccc(S(=O)(=O)Nc3cccc(N)n3)cc2)cc1
	12	O=C(Nc1cccc(C(=O)N2CCC[C@H]3CCCC[C@@H]32)c1)c1ccccc1
